# Data reported in patent publication US9290457B2, “Substituted dihydropyrimidinones and their use as inhibitors of neutrophil elastase activity” (Boehringer Ingelheim International GmbH, priority 2014, dated 2016).
# Biological target: neutrophil elastase (Homo sapiens (Human), UniProt P08246)
# Assay: Human Neutrophil Elastase Assay
# Assay type: biochemical
# Conditions: substrate MeOSuc-Ala-Ala-Pro-Val-AMC
# Protocol: Human Neutrophil Elastase Assay
# All other materials were of the highest grade commercially available.
# The following buffers were used: Compound buffer: 100 mM Tris, 500 mM NaCl, adjusted to pH 7.5; Assay buffer: 100 mM Tris, 500 mM NaCl, adjusted to pH 7.5, containing 0.01% BSA.
# Assay conditions: Test compounds were prediluted in DMSO and subsequently in compound buffer (5% DMSO final). […] After inactivation of the enzyme, fluorescence intensities were measured at 380 nm excitation and 460 nm emission wavelengths.
# Each plate contains wells with a high value control (DMSO+enzyme+substrate) and wells with a low value control (DMSO+inactivated enzyme+substrate). IC50 values were estimated using a sigmoidal concentration response curve with variable slope. Means of low values were taken as 0%, means of high values as 100%.
# Chain of neutrophil elastase (P08246 30-247): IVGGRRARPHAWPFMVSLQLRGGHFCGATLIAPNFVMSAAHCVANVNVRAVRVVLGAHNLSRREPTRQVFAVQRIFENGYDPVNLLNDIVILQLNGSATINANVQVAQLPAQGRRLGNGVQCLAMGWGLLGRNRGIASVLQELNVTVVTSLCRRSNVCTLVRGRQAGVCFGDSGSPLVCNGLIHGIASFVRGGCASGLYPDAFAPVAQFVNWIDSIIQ
row,SMILES,IC50
1,CC(=O)C1=C(C)N(c2cccc(C(F)(F)F)c2)C(=O)N(C)C1c1ccc(C#N)cc1C(=O)NCc1cncn1C (stereo not shown) [Example 1.52],< 1 nM
2,CC(=O)C1=C(C)N(c2cccc(C(F)(F)F)c2)C(=O)N(C)C1c1ccc(C#N)cc1C(=O)NCc1ccc(C#N)o1 (stereo not shown) [Example 1.67],1.3 nM
3,CC(=O)C1=C(C)N(c2cccc(C(F)(F)F)c2)C(=O)N(C)C1c1ccc(C#N)cc1C(=O)NCc1nccn1C (stereo not shown) [Example 1.57],< 1 nM
4,C#CCNC(=O)c1cc(C#N)ccc1C1C(C(C)=O)=C(C)N(c2cccc(C(F)(F)F)c2)C(=O)N1C (stereo not shown) [Example 1.5],< 1 nM
5,CC(=O)C1=C(C)N(c2cccc(C(F)(F)F)c2)C(=O)N(C)C1c1ccc(C#N)cc1C(=O)NCc1nnnn1C (stereo not shown) [Example 1.62],< 1 nM
6,"CC(=O)C1=C(C)N(c2cccc(C(F)(F)F)c2)C(=O)N(C)[C@@H]1c1ccc(C#N)cc1C(N)=O [Example 13, 2-[(R)-5-Acetyl-3,6-dimethyl-2-oxo-1-(3-trifluoromethyl-phenyl)-1,2,3,4-tetrahydro-pyrimidin-4-yl]-5-cyano-benzamide]",< 1 nM
7,CN[C@H]1CCN(C(=O)c2cc(C#N)ccc2C2C(C(C)=O)=C(C)N(c3cccc(C(F)(F)F)c3)C(=O)N2C)C1 (stereo partly shown) [Example 2.16],1.2 nM
8,CC(=O)C1=C(C)N(c2cccc(C(F)(F)F)c2)C(=O)N(C)C1c1ccc(C#N)cc1C(=O)NCc1ccn(C)n1 (stereo not shown) [Example 1.55],< 1 nM
9,CC(=O)C1=C(C)N(c2cccc(C(F)(F)F)c2)C(=O)N(C)C1c1ccc(C#N)cc1C(=O)N1CC[C@H](N(C)C)C1 (stereo partly shown) [Example 1.64],< 1 nM
10,CC(=O)C1=C(C)N(c2cccc(C(F)(F)F)c2)C(=O)N(C)C1c1ccc(C#N)cc1C(=O)NC1(C#N)CC1 (stereo not shown) [Example 1.32],< 1 nM
11,CCN1CCN(C(=O)c2cc(C#N)ccc2C2C(C(C)=O)=C(C)N(c3cccc(C(F)(F)F)c3)C(=O)N2C)CC1 (stereo not shown) [Example 1.65],4.1 nM
12,"CC(=O)C1=C(C)N(c2cccc(C(F)(F)F)c2)C(=O)N(C)C1c1ccc(C#N)cc1-c1ncc(C)o1 (stereo not shown) [Example 7, 4-[5-Acetyl-3,6-dimethyl-2-oxo-1-(3-trifluoromethyl-phenyl)-1,2,3,4-tetrahydro-pyrimidin-4-yl]-3-(5-methyl-oxazol-2-yl)-benzonitrile]",< 1 nM
13,CC(=O)C1=C(C)N(c2cccc(C(F)(F)F)c2)C(=O)N(C)C1c1ccc(C#N)cc1C(=O)NCCO (stereo not shown) [Example 1.9],< 1 nM
14,CC(=O)C1=C(C)N(c2cccc(C(F)(F)F)c2)C(=O)N(C)C1c1ccc(C#N)cc1C(=O)NCCN(C)C (stereo not shown) [Example 1.84],< 1 nM
15,CC(=O)C1=C(C)N(c2cccc(C(F)(F)F)c2)C(=O)N(C)C1c1ccc(C#N)cc1C(=O)NCc1cnoc1 (stereo not shown) [Example 1.39],< 1 nM
16,CC(=O)C1=C(C)N(c2cccc(C(F)(F)F)c2)C(=O)N(C)C1c1ccc(C#N)cc1C(=O)N1CC(O)C1 (stereo not shown) [Example 1.12],< 1 nM
17,COCCCNC(=O)c1cc(C#N)ccc1C1C(C(C)=O)=C(C)N(c2cccc(C(F)(F)F)c2)C(=O)N1C (stereo not shown) [Example 1.20],< 1 nM

row,SMILES,IC50
1,CC(=O)C1=C(C)N(c2cccc(C(F)(F)F)c2)C(=O)N(C)C1c1ccc(C#N)cc1C(=O)NCc1nncn1C (stereo not shown) [Example 1.61],< 1.3 nM
2,CC(=O)C1=C(C)N(c2cccc(C(F)(F)F)c2)C(=O)N(C)C1c1ccc(C#N)cc1C(=O)N1CCC(O)CC1 (stereo not shown) [Example 1.26],4.7 nM
3,CC(=O)C1=C(C)N(c2cccc(C(F)(F)F)c2)C(=O)N(C)C1c1ccc(C#N)cc1C(=O)NC(C)c1ccco1 (stereo not shown) [Example 1.51],1.4 nM
4,"CCOC(=O)C1=C(C)N(c2cccc(C(F)(F)F)c2)C(=O)N(C)C1c1ccc(C#N)cc1C(=O)N1CCNCC1 (stereo not shown) [Example 4, 4-[4-Cyano-2-(piperazine-1-carbonyl)-phenyl]-3,6-dimethyl-2-oxo-1-(3-trifluoromethyl-phenyl)-1,2,3,4-tetrahydro-pyrimidine-5-carboxylic acid ethyl ester]",1.4 nM
5,CC(=O)C1=C(C)N(c2cccc(C(F)(F)F)c2)C(=O)N(C)C1c1ccc(C#N)cc1C(=O)NCc1cn(C)cn1 (stereo not shown) [Example 1.58],< 1 nM
6,CC(=O)C1=C(C)N(c2cccc(C(F)(F)F)c2)C(=O)N(C)C1c1ccc(C#N)cc1C(=O)NCc1ccnnc1 (stereo not shown) [Example 1.49],< 1 nM
7,CC(=O)C1=C(C)N(c2cccc(C(F)(F)F)c2)C(=O)N(C)C1c1ccc(C#N)cc1C(=O)N1CC[C@@H](N)C1 (stereo partly shown) [Example 2.10],< 1 nM
8,CCOC(=O)C1=C(C)N(c2cccc(C(F)(F)F)c2)C(=O)N(C)C1c1ccc(C#N)cc1C(=O)N1CC2COCC(C1)N2 (stereo not shown) [Example 4.4],11.4 nM
9,COCCNC(=O)c1cc(C#N)ccc1C1C(C(C)=O)=C(C)N(c2cccc(C(F)(F)F)c2)C(=O)N1C (stereo not shown) [Example 1.15],< 1 nM
10,CC(=O)C1=C(C)N(c2cccc(C(F)(F)F)c2)C(=O)N(C)C1c1ccc(C#N)cc1C(=O)NC1CCOC1 (stereo not shown) [Example 1.19],< 1 nM
11,CC(=O)C1=C(C)N(c2cccc(C(F)(F)F)c2)C(=O)N(C)C1c1ccc(C#N)cc1C(=O)NC1CCN(C)CC1 (stereo not shown) [Example 1.28],< 1 nM
12,CC(=O)C1=C(C)N(c2cccc(C(F)(F)F)c2)C(=O)N(C)C1c1ccc(C#N)cc1C(=O)N1CCn2cnnc2C1 (stereo not shown) [Example 1.74],< 1 nM
13,CC(=O)C1=C(C)N(c2cccc(C(F)(F)F)c2)C(=O)N(C)C1c1ccc(C#N)cc1C(=O)NCC(F)(F)F (stereo not shown) [Example 1.23],< 1 nM
14,CC(=O)C1=C(C)N(c2cccc(C(F)(F)F)c2)C(=O)N(C)C1c1ccc(C#N)cc1C(=O)N1CCc2nocc2C1 (stereo not shown) [Example 1.72],2.8 nM
15,"CC(=O)C1=C(C)N(c2cccc(C(F)(F)F)c2)C(=O)NC1c1ccc(C#N)cc1-c1ccoc1 (stereo not shown) [Example 11, 4-[5-Acetyl-6-methyl-2-oxo-1-(3-trifluoromethyl-phenyl)-1,2,3,4-tetrahydro-pyrimidin-4-yl]-3-furan-3-yl-benzonitrile]",4.6 nM
16,CC(=O)C1=C(C)N(c2cccc(C(F)(F)F)c2)C(=O)N(C)C1c1ccc(C#N)cc1C(=O)NCc1cnco1 (stereo not shown) [Example 1.40],< 1 nM

# The remaining lines, values ahead:
row,IC50,SMILES
1,3 nM,CCOC(=O)C1=C(C)N(c2cccc(C(F)(F)F)c2)C(=O)N(C)C1c1ccc(C#N)cc1C(N)=O (stereo not shown) [Example 3.3]
2,< 1 nM,CCOC(=O)C1=C(C)N(c2cccc(C(F)(F)F)c2)C(=O)N(C)C1c1ccc(C#N)cc1C(=O)NCCN (stereo not shown) [Example 4.5]
3,2.8 nM,CCOC(=O)C1=C(C)N(c2cccc(C(F)(F)F)c2)C(=O)N(C)C1c1ccc(C#N)cc1C(=O)N1CCN2CCCC2C1 (stereo not shown) [Example 3.43]
4,1.9 nM,CCOC(=O)C1=C(C)N(c2cccc(C(F)(F)F)c2)C(=O)N(C)C1c1ccc(C#N)cc1-c1cn[nH]c1 (stereo not shown) [Example 14.2]
5,1.1 nM,CC(=O)C1=C(C)N(c2cccc(C(F)(F)F)c2)C(=O)N(C)C1c1ccc(C#N)cc1-c1cnn(C)c1 (stereo not shown) [Example 5.3]
6,1.3 nM,CCOC(=O)C1=C(C)N(c2cccc(C(F)(F)F)c2)C(=O)N(C)C1c1ccc(C#N)cc1C(=O)NC1CCC(O)C1 (stereo not shown) [Example 3.28]
7,3 nM,CCOC(=O)C1=C(C)N(c2cccc(C(F)(F)F)c2)C(=O)N(C)C1c1ccc(C#N)cc1C(=O)NC1CC1 (stereo not shown) [Example 3.8]
8,2 nM,CCOC(=O)C1=C(C)N(c2cccc(C(F)(F)F)c2)C(=O)N(C)C1c1ccc(C#N)cc1C(=O)N1CCNC(C)C1 (stereo not shown) [Example 4.17]
9,< 1 nM,CCOC(=O)C1=C(C)N(c2cccc(C(F)(F)F)c2)C(=O)N(C)C1c1ccc(C#N)cc1C(=O)N[C@H]1C[C@H]1N (stereo partly shown) [Example 4.6]
10,1 nM,CCOC(=O)C1=C(C)N(c2cccc(C(F)(F)F)c2)C(=O)N(C)C1c1ccc(C#N)cc1C(=O)NC1CCS(=O)(=O)C1 (stereo not shown) [Example 3.34]
11,< 1 nM,CCOC(=O)C1=C(C)N(c2cccc(C(F)(F)F)c2)C(=O)N(C)C1c1ccc(C#N)cc1C(=O)NCCN(C)C (stereo not shown) [Example 3.35]
12,1.8 nM,CCOC(=O)C1=C(C)N(c2cccc(C(F)(F)F)c2)C(=O)N(C)C1c1ccc(C#N)cc1C(=O)N1CCN(C(C)C)CC1 (stereo not shown) [Example 3.45]
13,4.8 nM,CCOC(=O)C1=C(C)N(c2cccc(C(F)(F)F)c2)C(=O)N(C)C1c1ccc(C#N)cc1C(=O)N1CCC(N)CC1 (stereo not shown) [Example 4.3]
14,1.9 nM,CC(=O)C1=C(C)N(c2cccc(C(F)(F)F)c2)C(=O)N(C)C1c1ccc(C#N)cc1-c1ccco1 (stereo not shown) [Example 5.1]
15,< 1 nM,CC(=O)C1=C(C)N(c2cccc(C(F)(F)F)c2)C(=O)N(C)[C@@H]1c1ccc(C#N)cc1C(=O)NCC#N [Example 13.3]
16,4.8 nM,"CC(=O)C1=C(C)N(c2cccc(C(F)(F)F)c2)C(=O)N(C)C1c1ccc(C#N)cc1C1=CCN(C(=O)OC(C)(C)C)CC1 (stereo not shown) [Example 5.6, 4-{2-[5-Acetyl-3,6-dimethyl-2-oxo-1-(3-trifluoromethyl-phenyl)-1,2,3,4-tetrahydro-pyrimidin-4-yl]-5-cyano-phenyl}-3,6-dihydro-2H-pyridine-1-carboxylic acid tert-butyl ester]"
17,< 1 nM,CC(=O)C1=C(C)N(c2cccc(C(F)(F)F)c2)C(=O)N(C)C1c1ccc(C#N)cc1C1=CCOCC1 (stereo not shown) [Example 5.7]
18,< 1 nM,CCOC(=O)C1=C(C)N(c2cccc(C(F)(F)F)c2)C(=O)N(C)C1c1ccc(C#N)cc1C(=O)NC1COC1 (stereo not shown) [Example 3.14]
19,2.9 nM,CCOC(=O)C1=C(C)N(c2cccc(C(F)(F)F)c2)C(=O)N(C)C1c1ccc(C#N)cc1C(=O)N1CCN(C2CC2)CC1 (stereo not shown) [Example 3.42]
20,1.1 nM,CCOC(=O)C1=C(C)N(c2cccc(C(F)(F)F)c2)C(=O)N(C)C1c1ccc(C#N)cc1C(=O)NC1CCN(C(C)C)C1 (stereo not shown) [Example 3.44]
21,< 1 nM,CCOC(=O)C1=C(C)N(c2cccc(C(F)(F)F)c2)C(=O)N(C)C1c1ccc(C#N)cc1C(=O)N1CCCC1 (stereo not shown) [Example 3.12]
22,1.4 nM,CC(=O)C1=C(C)N(c2cccc(C(F)(F)F)c2)C(=O)N(C)C1c1ccc(C#N)cc1-c1ccn(C)n1 (stereo not shown) [Example 5.2]
